Data on 11 compounds can be found in US12497408B2, “Tetracyclic compounds and methods for the treatment of Zika virus infection” (priority 2021, dated 2025).

For this assay, the system named is ZIKV. As to the kind of experiment: ZIKV reporter virus-based antiviral screening on Huh7 cells. Type of assay: cell-based, Zika virus. As to conditions: Zika virus, Huh-7, 48 h, Huh7 cells infected with recombinant luciferase reporter ZIKV (MOI about 0.1), luciferase signal. In a few lines:
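Huh7 cells in 2% FBS assay medium infected at MOI about 0.1 with Renilla or Nano luciferase ZIKV premixed with nine-point compound dilutions, 48 hrs at 37° C. Luciferase signal normalized to DMSO controls as 100%; viability optionally by CellTiter-Glo with Rlu virus.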

As for `COC(=O)N[C@H](C(=O)N1C[C@@H](OC)C[C@H]1c1nc(Cl)c(-c2cc3c4c(c2)OCc2cc(-c5[nH]c([C@@H]6C[C@H](OC)CN6C(=O)[C@@H](NC(=O)OC)C(C)C)nc5Cl)cc(c2-4)OC3)[nH]1)C(C)C` [Compound 4, dimethyl ((2S,2′S)-((3S,3′S,5S,5′S)-((5,10-dihydrochromeno[5,4,3-cde]chromene-2,7-diyl)bis(4-chloro-1H-imidazole-5,2-diyl))bis(3-methoxypyrrolidine-5,1-diyl))bis(3-methyl-1-oxobutane-1,2-diyl))dicarbamate], the EC50 is 19.2 nM.

As to `COC(=O)N[C@H](C(=O)N1CCC[C@@]1(C)c1nc(Cl)c(-c2cc3c4c(c2)OCc2cc(-c5[nH]c([C@]6(C)CCCN6C(=O)[C@@H](NC(=O)OC)C(C)C)nc5Cl)cc(c2-4)OC3)[nH]1)C(C)C` [Compound 64, dimethyl ((2S,2′S)-((2S,2′S)-((5,10-dihydrochromeno[5,4,3-cde]chromene-2,7-diyl)bis(4-chloro-1H-imidazole-5,2-diyl))bis(2-methylpyrrolidine-2,1-diyl))bis(3-methyl-1-oxobutane-1,2-diyl))dicarbamate], the EC50 was 234 nM. Turning to `COC(=O)N[C@H](C(=O)N1C[C@@H](C)C[C@H]1c1nc(Cl)c(-c2cc3c4c(c2)OCc2cc(-c5[nH]c([C@@H]6C[C@H](C)CN6C(=O)[C@@H](NC(=O)OC)C(C)C)nc5Br)cc(c2-4)OC3)[nH]1)C(C)C` [Compound 69, methyl ((S)-1-((2S,4S)-2-(4-bromo-5-(7-(4-chloro-2-((2S,4S)-1-((methoxycarbonyl)-L-valyl)-4-methylpyrrolidin-2-yl)-1H-imidazol-5-yl)-5,10-dihydrochromeno[5,4,3-cde]chromen-2-yl)-1H-imidazol-2-yl)-4-methylpyrrolidin-1-yl)-3-methyl-1-oxobutan-2-yl)carbamate], the EC50 is 11.6 nM. With `COC(=O)N[C@H](C(=O)N1CC(F)(F)C[C@H]1c1nc(Cl)c(-c2cc3c4c(c2)OCc2cc(-c5[nH]c([C@@H]6CC(F)(F)CN6C(=O)[C@@H](NC(=O)OC)C(C)C)nc5Cl)cc(c2-4)OC3)[nH]1)C(C)C` [Compound 56, dimethyl ((2S,2′S)-((5S,5′S)-((5,10-dihydrochromeno[5,4,3-cde]chromene-2,7-diyl)bis(4-chloro-1H-imidazole-5,2-diyl))bis(3,3-difluoropyrrolidine-5,1-diyl))bis(3-methyl-1-oxobutane-1,2-diyl))dicarbamate] the figure was 3.8 nM. Regarding `COC(=O)N[C@H](C(=O)N1[C@@H](C)CC[C@H]1c1ncc(-c2cc3c4c(c2)OCc2cc(-c5[nH]c([C@@H]6CC[C@H](C)N6C(=O)[C@@H](NC(=O)OC)C(C)C)nc5Cl)cc(c2-4)OC3)[nH]1)C(C)C` [Compound 75, methyl ((S)-1-((2S,5S)-2-(4-chloro-5-(7-(2-((2S,5S)-1-((methoxycarbonyl)-L-valyl)-5-methylpyrrolidin-2-yl)-1H-imidazol-5-yl)-5,10-dihydrochromeno[5,4,3-cde]chromen-2-yl)-1H-imidazol-2-yl)-5-methylpyrrolidin-1-yl)-3-methyl-1-oxobutan-2-yl)carbamate], the EC50 turned out to be 9.6 nM. For the compound `CC[C@H](C)[C@H](NC(=O)OC)C(=O)N1[C@H](c2nc(Cl)c(-c3cc4c5c(c3)OCc3cc(-c6[nH]c([C@@H]7C[C@@H]8CCC[C@@H]8N7C(=O)[C@@H](NC(=O)OC)[C@@H](C)CC)nc6Cl)cc(c3-5)OC4)[nH]2)C[C@@H]2CCC[C@@H]21` [Compound 36, dimethyl ((2S,2′S,3S,3′S)-((2S,2′S,3aS,3a′S,6aS,6a′S)-((5,10-dihydrochromeno[5,4,3-cde]chromene-2,7-diyl)bis(4-chloro-1H-imidazole-5,2-diyl))bis(hexahydrocyclopenta[b]pyrrole-2,1(2H)-diyl))bis(3-methyl-1-oxopentane-1,2-diyl))dicarbamate], the concentration for a half-maximal effect (EC50) stood at 4.3 nM. Regarding `COC(=O)N[C@H](C(=O)N1CC2(CC2)C[C@H]1c1nc(Cl)c(-c2cc3c4c(c2)OCc2cc(-c5[nH]c([C@@H]6CC7(CC7)CN6C(=O)[C@@H](NC(=O)OC)C(C)C)nc5C(C)C)cc(c2-4)OC3)[nH]1)C(C)C` [Compound 15, methyl ((S)-1-((S)-6-(5-(7-(4-chloro-2-((S)-5-((methoxycarbonyl)-L-valyl)-5-azaspiro[2.4]heptan-6-yl)-1H-imidazol-5-yl)-5,10-dihydrochromeno[5,4,3-cde]chromen-2-yl)-4-isopropyl-1H-imidazol-2-yl)-5-azaspiro[2.4]heptan-5-yl)-3-methyl-1-oxobutan-2-yl)carbamate], the EC50 is 3.7 nM. With `COC(=O)N[C@H](C(=O)N1C[C@H](F)C[C@H]1c1nc(Cl)c(-c2cc3c4c(c2)OCc2cc(-c5[nH]c([C@@H]6C[C@@H](F)CN6C(=O)[C@@H](NC(=O)OC)C(C)(C)C(F)(F)F)nc5Cl)cc(c2-4)OC3)[nH]1)C(C)(C)C(F)(F)F` [Compound 55, dimethyl ((2S,2′S)-((3R,3′R,5S,5′S)-((5,10-dihydrochromeno[5,4,3-cde]chromene-2,7-diyl)bis(4-chloro-1H-imidazole-5,2-diyl))bis(3-fluoropyrrolidine-5,1-diyl))bis(4,4,4-trifluoro-3,3-dimethyl-1-oxobutane-1,2-diyl))dicarbamate] the figure was 4.7 nM. With `COC(=O)N[C@H](C(=O)N1CC2(CC2)C[C@H]1c1nc(Cl)c(-c2cc3c4c(c2)OCc2cc(-c5[nH]c([C@@H]6CC7(CC7)CN6C(=O)[C@@H](NC(=O)OC)C(C)(C)C(F)(F)F)nc5C(C)C)cc(c2-4)OC3)[nH]1)C(C)(C)C(F)(F)F` [Compound 85, methyl ((S)-1-((S)-6-(5-(7-(4-chloro-2-((S)-5-((S)-4,4,4-trifluoro-2-((methoxycarbonyl)amino)-3,3-dimethylbutanoyl)-5-azaspiro[2.4]heptan-6-yl)-1H-imidazol-5-yl)-5,10-dihydrochromeno[5,4,3-cde]chromen-2-yl)-4-isopropyl-1H-imidazol-2-yl)-5-azaspiro[2.4]heptan-5-yl)-4,4,4-trifluoro-3,3-dimethyl-1-oxobutan-2-yl)carbamate] the figure was 1.4 nM; with `COC(=O)N[C@H](C(=O)N1CCC[C@H]1c1nc(C2CC2)c(-c2cc3c4c(c2)OCc2cc(-c5[nH]c([C@@H]6CCCN6C(=O)[C@@H](NC(=O)OC)C(C)C)nc5C5CC5)cc(c2-4)OC3)[nH]1)C(C)C` [Compound 17, dimethyl ((2S,2′S)-((2S,2′S)-((5,10-dihydrochromeno[5,4,3-cde]chromene-2,7-diyl)bis(4-cyclopropyl-1H-imidazole-5,2-diyl))bis(pyrrolidine-2,1-diyl))bis(3-methyl-1-oxobutane-1,2-diyl))dicarbamate], 74.5 nM. On to `COC(=O)N[C@H](C(=O)N1[C@@H](C)CC[C@H]1c1nc(C(C)C)c(-c2cc3c4c(c2)OCc2cc(-c5[nH]c([C@@H]6CC[C@H](C)N6C(=O)[C@@H](NC(=O)OC)C(C)(C)C(F)(F)F)nc5C(C)C)cc(c2-4)OC3)[nH]1)C(C)(C)C(F)(F)F` [Compound 42, dimethyl ((2S,2′S)-((2S,2′S,5S,5′S)-((5,10-dihydrochromeno[5,4,3-cde]chromene-2,7-diyl)bis(4-isopropyl-1H-imidazole-5,2-diyl))bis(2-methylpyrrolidine-5,1-diyl))bis(4,4,4-trifluoro-3,3-dimethyl-1-oxobutane-1,2-diyl))dicarbamate], for which the EC50 is 1.9 nM.

As a reminder, the EC50 is the concentration giving half of the maximal effect.
